Tests used:
RBCs [1] = assay: CO2 production of RBCs (GC-MS and quantitative respirometry, IRGA); assay type: cell-based, Human; settings: 10 μM HMBPP, FIG. 2B
Experimental: (§1) RBCs (1 ml) were transferred to 4 ml glass vials closed with auto-sampler screw caps, and equilibrated in a thermostat at 38° C. for 15 min. Then, 2.5 μl of HMBPP or Nanopure water were added to the RBCs samples (final concentration: 10 μM HMBPP per sample). Volatiles were collected from the headspace using solid phase micro-extraction (SPME; Supelco, Bellmonte, Pa., USA) (M. J. Yang, el al., J. Chem. Educ., 74, 1130-1132 (1997) and A. K. Borg-Karlson and R. Mozuraitis, Naturforsch., C. 51, 599-602 (1996)). […] Electron ionisation mass spectra were determined at 70 eV with the ion source kept at 230° C. and mass spectra were obtained at mass to charge ratio (m/z) 29-400. […] A similar protocol was used for the quantification of CO2, with the mass spectral data and GC retention times being compared with emission from frozen CO2. The relative amounts of CO2 in arbitrary units were determined from the areas of the respective chromatogram peaks using single ion display mode at m/z 44±0.5 Da. The amounts of identified compounds were quantified by the use of extracted ion chromatograms, since they are very minute. […] The estimations were based on the very same quantifications given in ‘arbitrary area units’. […]

A. gambiae s.l. = assay: Olfactometer bioassay (larger Y-tube olfactometer / wind tunnel assay); assay type: in vivo; settings: larger Y-tube olfactometer, FIG. 2A
Experimental: Behavioural experiments were performed using different odour sources with and without pulsed CO2 stimuli in a Plexiglas Y shaped olfactometer (9.5 cm i.d.×length of the central cylinder and two arms: 120/120/120 cm respectively), illuminated from above at 280 lx. A charcoal-filtered and humidified air stream (25±2° C., RH 65±2%) passed through stainless steel mesh screens at 30 cm s^−1 to generate a laminar flow in the olfactometer. Odors were introduced into the air stream of each arm at the downwind end. […] Odor sources consisted of either RBC-based treatments or headspace extracts. RBC-based treatments included RBCs alone, hRBCs, giRBCs or ippRBCs (RBCs supplemented with HMBPP, gametocytes or IPP), as well as RBCs with supernatants from gametocyte-infected RBCs, or RBCs supplemented with the synthetic odour blend. Headspace extracts collected from hRBCs and giRBCs were used. Treatments including RBCs were heated to 37° C. prior to being pumped (150 ml min^−1) into the airstream of each arm separately. The blend and headspace extracts were delivered to each arm via a wick dispenser. Carbon dioxide (Strandmöllen) was introduced into a plume generator that was placed behind the metal screens to create a homogenous-pulsed flow, which was regulated by a stimulus controller (SEC-2/b, Syntech, Löptin Germany). […]

A. gambiae sensu lato = assay: Dual choice attraction bioassay (Y-tube olfactometer); assay type: in vivo; settings: FIG. 1A
Experimental: Mosquitoes used in this study were from the laboratory colony of A. gambiae sensu lato (Keele line, University of Glasgow), which was produced by balanced interbreeding of four A. gambiae s.s. strains (H. Hurd, et al. Evolution, 59, 2560-2572 (2005)). Larvae were reared under standard insectary conditions (27±1° C., 70% humidity, 12 h light: 12 h dark cycle) and fed on TetraMin fish flakes (Tetra ltd., Germany). Pupae were transferred into holding cages for emergence. Emerged adults were fed ad libitum on 5% glucose solution, supplemented with 0.05% (w/v) 4-aminobenzoic acid (PABA, Sigma-Aldrich), through soaked filters on top of the 2 ml tubes and with soaked filter pads inside cages. Red blood cells (RBCs) were washed with Roswell Park Memorial Institute (RPMI) medium and stored in RPMI at 50% haematocrit at 4° C. until use. To measure the effect of HMBPP on mosquito fitness, RBCs stored in RPMI were centrifuged at 2500×g for 5 min followed by replacement of the medium with AB serum for a final haematocrit of 40%. HMBPP (stock concentration at 4 mM in Nanopure water, stored at −80° C.) was diluted to 10 μM in 1 ml RBC suspension, and the corresponding volume of Nanopure water was added to the control RBCs. All experiments were, unless otherwise stated, conducted on 5-7 days post-emergence female mosquitoes maintained in separated cages (approximately 210 individuals per cohort) and fed RBCs either with or without HMBPP for 30 min. All experiments were performed in triplicates.
Initial experiments were performed using a Y-tube olfactometer (length of the central cylinder and two arms: 25/15/15 cm respectively, inner diameter: 5 cm; see FIG. 1a). For each experiment, 180 female mosquitoes were individually placed in a release chamber and flown one by one. Females flew towards the upwind end (airflow 3 L min^−1) and entered one of two trapping chambers through which odour released from nearby membrane feeders passed (5 cm distance to each trapping chamber). Three experiments were conducted. In the first experiment, the membrane feeders were loaded with RBCs with or without HMBPP, while in the second they were loaded with serum with or without HMBPP. The third experiment was performed with a 5% glucose with 0.05% PABA solution with or without HMBPP. To control for possible spatial effects, the location of treatment at each olfactometer arm was switched every 30 minutes (˜15 mosquitoes flied one by one in each 30 minutes). Each replacement (feeder rotation with fresh RBCs) was counted as an experimental replicate (experimental block). Mosquitoes reaching any of the trapping chambers were considered to have made a choice. Each experiment was repeated six times with in total 180 mosquitoes per treatment.

RBCs [2] = assay: Volatile collection (SPME) and GC-MS analysis of RBC headspace; assay type: cell-based, Human; settings: 10 μM HMBPP, FIGS. 2C and D
Experimental: as §1

With `C/C(=C\COP(=O)(O)OP(=O)(O)O)CO` [HMBPP, (E)-4-hydroxy-3-methyl-but-2-enyl pyrophosphate] the “increase of the amount of CO2 released into the gas headspace above hRBC suspensions compared to RBCs alone” value (RBCs [1]) was 16%, the “attraction of mosquitoes to supplemented RBCs versus RBCs” value (A. gambiae s.l.) was “could mimic the attraction of mosquitoes to giRBCs” and the “host-seeking mosquitoes that chose HMBPP-supplemented RBCs (hRBCs) over RBCs” value (A. gambiae sensu lato; RBCs with 10 μM HMBPP vs RBCs) was 95%. The “attraction to HMBPP-supplemented glucose solution” value (A. gambiae sensu lato; glucose solution (5%) containing PABA 0.05%, with vs without HMBPP) was “did not, however, increase attraction”, the “attraction to HMBPP-supplemented serum” value (A. gambiae sensu lato; serum with vs without HMBPP) was “did not, however, increase attraction” and the “increase in aldehydes (C8-C10:al) in headspace of hRBCs compared to RBCs” value (RBCs [2]) was 1.7-to-5.2 fold. The “increase in monoterpenes (α- and ß-pinene, limonene) in headspace of hRBCs compared to RBCs” value (RBCs [2]) was 1.2-to-1.6 fold.

— patent publication US11638424B2, “Mosquito attractant formulations and uses thereof” (priority 2017, dated 2023)
